In patent US20250059213A1, “LONP1 INHIBITORS, USES AND METHODS” (Pretzel Therapeutics, Inc., priority 2021, published 2025):

Target: LONP1 (NM_004793.4) (Homo sapiens (Human), UniProt P36776)
Experiment: LONP1 FRET-based protease activity assay (fluorogenic peptide substrate)
Type: biochemical
Details: LONP1 15 nM, substrate 3 μM, 15 min preincubation, 1 hour at 37° C.; average of a minimum of two repeats
Method: Inhibition of LONP1 protease activity by an inhibitor compound of the disclosure elicits a decrease in the fluorescent signal.
The LONP1-containing mix (10 μL) was incubated with the test compound for 15 min at 37° C. before adding the peptide-containing mix (5 μL). Solutions were dispensed using a small cassette-Multidrop Combi (Thermo Scientific).
Each value is based on an average of a minimum of two repeats.

LONP1 (NM_004793.4), sequence (P36776 68-959): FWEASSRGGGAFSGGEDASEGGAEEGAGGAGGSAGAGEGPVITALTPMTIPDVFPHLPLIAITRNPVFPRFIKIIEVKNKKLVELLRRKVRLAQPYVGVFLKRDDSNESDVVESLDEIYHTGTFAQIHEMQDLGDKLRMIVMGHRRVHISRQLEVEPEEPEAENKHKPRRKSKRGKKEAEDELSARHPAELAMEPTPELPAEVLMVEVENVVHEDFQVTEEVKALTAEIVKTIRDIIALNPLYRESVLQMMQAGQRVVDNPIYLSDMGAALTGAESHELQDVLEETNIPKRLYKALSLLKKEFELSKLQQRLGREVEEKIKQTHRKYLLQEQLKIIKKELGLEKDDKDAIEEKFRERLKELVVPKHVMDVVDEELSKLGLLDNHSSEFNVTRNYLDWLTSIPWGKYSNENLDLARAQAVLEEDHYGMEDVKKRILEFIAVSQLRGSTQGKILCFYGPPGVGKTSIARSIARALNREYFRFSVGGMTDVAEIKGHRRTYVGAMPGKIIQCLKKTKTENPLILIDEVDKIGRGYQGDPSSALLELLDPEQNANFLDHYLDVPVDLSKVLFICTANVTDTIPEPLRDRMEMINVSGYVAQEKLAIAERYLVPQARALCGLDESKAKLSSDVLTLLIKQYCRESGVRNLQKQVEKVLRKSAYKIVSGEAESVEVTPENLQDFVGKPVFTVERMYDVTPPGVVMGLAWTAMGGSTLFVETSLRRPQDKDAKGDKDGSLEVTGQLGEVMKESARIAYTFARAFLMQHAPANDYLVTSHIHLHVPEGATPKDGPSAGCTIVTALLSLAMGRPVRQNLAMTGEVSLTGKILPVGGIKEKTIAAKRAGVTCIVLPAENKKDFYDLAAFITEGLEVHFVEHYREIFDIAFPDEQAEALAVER

Structure (SMILES) | IC50 [nM]
COC[C@@H](NC(=O)c1cnccn1)C(=O)N[C@@H](CCCc1ccccc1)B(O)O [Compound 37, ((R)-1-((R)-3-methoxy-2-(pyrazine-2-carboxamido)propanamido)-4-phenylbutyl)boronic acid] | < 50
CCC[C@H](C(=O)N[C@@H](CCCc1ccccc1)B(O)O)N(C)C(=O)c1cnccn1 [Compound 51, ((R)-1-((R)-2-(N-methylpyrazine-2-carboxamido)pentanamido)-4-phenylbutyl)boronic acid] | 50 to 500
CC(C)(C)OC(=O)N[C@H](CC(=O)N1CCOCC1)C(=O)N[C@@H](CCCc1ccccc1)B(O)O [Compound 21, ((R)-1-((R)-2-((tert-butoxycarbonyl)amino)-4-morpholino-4-oxobutanamido)-4-phenylbutyl)boronic acid] | < 50
CC[C@H](NC(=O)[C@@H](CC(=O)N1CCOCC1)NC(=O)c1cnccn1)B(O)O [Compound 32, ((R)-1-((R)-4-morpholino-4-oxo-2-(pyrazine-2-carboxamido)butanamido)propyl)boronic acid] | < 50
O=C(N[C@H](CC(=O)N1CCOCC1)C(=O)NC(CCCc1ccccc1)B(O)O)C1CCOCC1 (stereo in doubt) [Compound 42, ((R)-1-((R)-4-morpholino-4-oxo-2-(tetrahydro-2H-pyran-4-carboxamido)butanamido)-4-phenylbutyl)boronic acid] | < 50
CCC[C@H](NC(=O)[C@@H](CC(=O)N1CCOCC1)NC(=O)c1cnccn1)B(O)O [Compound 31, ((R)-1-((R)-4-morpholino-4-oxo-2-(pyrazine-2-carboxamido)butanamido)butyl)boronic acid] | < 50
O=C(N[C@H](CC(=O)N1CCOCC1)C(=O)NC(CCCc1ccccc1)B(O)O)C1CCCCC1 (stereo in doubt) [Compound 41, ((R)-1-((R)-2-(cyclohexanecarboxamido)-4-morpholino-4-oxobutanamido)-4-phenylbutyl)boronic acid] | < 50
CS(=O)(=O)CC[C@@H](NC(=O)c1cnccn1)C(=O)N[C@@H](CCCc1ccccc1)B(O)O [Compound 35, ((R)-1-((R)-4-(methylsulfonyl)-2-(pyrazine-2-carboxamido)butanamido)-4-phenylbutyl)boronic acid] | < 50
O=C(N[C@H](COc1ccccn1)C(=O)N[C@@H](CCCc1ccccc1)B(O)O)c1cnccn1 [Compound 29, ((R)-4-phenyl-1-((R)-2-(pyrazine-2-carboxamido)-3-(pyridin-2-yloxy)propanamido)butyl)boronic acid] | < 50
NC(=O)C[C@@H](NC(=O)c1cnccn1)C(=O)N[C@@H](CCCc1ccccc1)B(O)O [Compound 10, ((R)-1-((R)-4-amino-4-oxo-2-(pyrazine-2-carboxamido)butanamido)-4-phenylbutyl)boronic acid] | < 50
CC(=O)N[C@H](CC(=O)N1CCOCC1)C(=O)N[C@@H](CCCc1ccccc1)B(O)O [Compound 19, ((R)-1-((R)-2-acetamido-4-morpholino-4-oxobutanamido)-4-phenylbutyl)boronic acid] | < 50
COC[C@@H](NC(=O)c1cccc(OC)n1)C(=O)N[C@@H](CCCc1ccccc1)B(O)O [Compound 50, ((R)-1-((R)-3-methoxy-2-(6-methoxypicolinamido)propanamido)-4-phenylbutyl)boronic acid] | < 50
O=C(NC(CC(=O)N1CCOCC1)C(=O)N[C@@H](Cc1ccccc1)B(O)O)c1cnccn1 (stereo in doubt) [Compound 47, ((R)-1-((R)-4-morpholino-4-oxo-2-(pyrazine-2-carboxamido)butanamido)-2-phenylethyl)boronic acid] | > 5000
CCC[C@H](C(=O)N(C)[C@@H](CCCc1ccccc1)B(O)O)N(C)C(=O)c1cnccn1 [Compound 52, ((R)-1-((R)—N-methyl-2-(N-methylpyrazine-2-carboxamido)pentanamido)-4-phenylbutyl)boronic acid] | 50 to 500
O=C(N[C@@H](CCCc1ccccc1)B(O)O)[C@@H](CC(=O)N1CCOCC1)NC(=O)N1CCOCC1 [Compound 20, ((R)-1-((R)-2-(morpholine-4-carboxamido)-4-morpholino-4-oxobutanamido)-4-phenylbutyl)boronic acid] | < 50
O=C(N[C@H](CCC(=O)N1CCOCC1)C(=O)N[C@@H](CCCc1ccccc1)B(O)O)c1cnccn1 [Compound 23, ((R)-1-((R)-5-morpholino-5-oxo-2-(pyrazine-2-carboxamido)pentanamido)-4-phenylbutyl)boronic acid] | < 50

Structure (SMILES) | IC50 [nM]
CCCC[C@H](NC(=O)[C@@H](CC(=O)N1CCOCC1)NC(=O)c1cnccn1)B(O)O [Compound 6, ((R)-1-((R)-4-morpholino-4-oxo-2-(pyrazine-2-carboxamido)butanamido)pentyl)boronic acid] | < 50
CCNC(=O)C[C@@H](NC(=O)c1cnccn1)C(=O)N[C@@H](CCCc1ccccc1)B(O)O [Compound 9, ((R)-1-((R)-4-(ethylamino)-4-oxo-2-(pyrazine-2-carboxamido)butanamido)-4-phenylbutyl)boronic acid] | < 50
CN(C)S(=O)(=O)C[C@@H](NC(=O)c1cnccn1)C(=O)N[C@@H](CCCc1ccccc1)B(O)O [Compound 27, ((R)-1-((S)-3-(N,N-dimethylsulfamoyl)-2-(pyrazine-2-carboxamido)propanamido)-4-phenylbutyl)boronic acid] | < 50
CC(C)(C)NC(=O)N[C@H](CC(=O)N1CCOCC1)C(=O)N[C@@H](CCCc1ccccc1)B(O)O [Compound 22, ((R)-1-((R)-2-(3-(tert-butyl)ureido)-4-morpholino-4-oxobutanamido)-4-phenylbutyl)boronic acid] | 50 to 500
O=C(C[C@@H](NC(=O)c1cnccn1)C(=O)N[C@@H](CCCc1ccccc1)B(O)O)c1ccccc1 [Compound 3, ((1R)-1-(4-oxo-4-phenyl-2-(pyrazine-2-carboxamido)butanamido)-4-phenylbutyl)boronic acid] | < 50
CN(C)C(=O)N[C@H](CC(=O)N1CCOCC1)C(=O)N[C@@H](CCCc1ccccc1)B(O)O [Compound 33, ((R)-1-((R)-2-(3,3-dimethylureido)-4-morpholino-4-oxobutanamido)-4-phenylbutyl)boronic acid] | < 50
CCC[C@@H](NC(=O)c1cnccn1)C(=O)N[C@@H](COCc1ccccc1)B(O)O [Compound 39, ((R)-2-(benzyloxy)-1-((R)-2-(pyrazine-2-carboxamido)pentanamido)ethyl)boronic acid] | < 50
O=C(N[C@H](CC(=O)N1CCOCC1)C(=O)N[C@@H](CCc1ccccc1)B(O)O)c1cnccn1 [Compound 5, ((R)-1-((R)-4-morpholino-4-oxo-2-(pyrazine-2-carboxamido)butanamido)-3-phenylpropyl)boronic acid] | < 50
O=C(N[C@@H](CCCc1ccccc1)B(O)O)[C@@H](CC(=O)N1CCOCC1)NS(=O)(=O)c1ccccc1 [Compound 43, ((R)-1-((R)-4-morpholino-4-oxo-2-(phenylsulfonamido)butanamido)-4-phenylbutyl)boronic acid] | < 50
O=C(N[C@H](CC(=O)N1CCOCC1)C(=O)N[C@@H](CCCc1ccccc1)B(O)O)C1CCCCO1 (stereo partly drawn) [Compound 44, ((1R)-1-((2R)-4-morpholino-4-oxo-2-(tetrahydro-2H-pyran-2-carboxamido)butanamido)-4-phenylbutyl)boronic acid] | < 50
CN(C)C(=O)C[C@@H](NC(=O)c1cnccn1)C(=O)N[C@@H](CCCc1ccccc1)B(O)O [Compound 8, ((R)-1-((R)-4-(dimethylamino)-4-oxo-2-(pyrazine-2-carboxamido)butanamido)-4-phenylbutyl)boronic acid] | < 50
CC(C)C[C@H](NC(=O)[C@@H](CC(=O)N1CCOCC1)NC(=O)c1cnccn1)B(O)O [Compound 4, ((R)-3-methyl-1-((R)-4-morpholino-4-oxo-2-(pyrazine-2-carboxamido)butanamido)butyl)boronic acid] | < 50
O=C(N[C@H](CC(=O)N1CCCCC1)C(=O)N[C@@H](CCCc1ccccc1)B(O)O)c1cnccn1 [Compound 11, ((R)-1-((R)-4-oxo-4-(piperidin-1-yl)-2-(pyrazine-2-carboxamido)butanamido)-4-phenylbutyl)boronic acid] | < 50
COC[C@@H](NC(=O)c1ccccc1)C(=O)N[C@@H](CCCc1ccccc1)B(O)O [Compound 48, ((R)-1-((R)-2-benzamido-3-methoxypropanamido)-4-phenylbutyl)boronic acid] | < 50
COC[C@@H](NC(=O)c1cnccn1)C(=O)N[C@@H](COCc1ccccc1)B(O)O [Compound 38, ((R)-2-(benzyloxy)-1-((R)-3-methoxy-2-(pyrazine-2-carboxamido)propanamido)ethyl)boronic acid] | < 50
Cc1nc(C)c(C(=O)N[C@H](CC(=O)N2CCOCC2)C(=O)N[C@@H](CC(C)C)B(O)O)o1 [Compound 7, ((R)-1-((R)-2-(2,4-dimethyloxazole-5-carboxamido)-4-morpholino-4-oxobutanamido)-3-methylbutyl)boronic acid] | < 50
